Laboratory results published in patent EP4806435A1, “DIHYDROCHROMENE-DERIVATIVE-CONTAINING THERAPEUTIC AGENT FOR CANCER” (Sumitomo Pharma Co., Ltd., priority 2023, dated 2025).

Key:
[1] = system: luciferase-expressing U-87 cells; experiment: In vivo efficacy, combination with bevacizumab, orthotopic brain tumor (IVIS imaging); conditions: Compound 1 10 mg/kg twice daily (once daily from day 30) + bevacizumab 1 mg/kg twice weekly; brain tumors in immunodeficient mice
Protocol: Luciferase-expressing U-87 cells, in which the luminescent enzyme luciferase was forcibly expressed, were established (obtained from ATCC (American Type Culture Collection)). 1 x 10^6 of these cells were implanted into the brains of immunodeficient mice to establish brain tumors. On day 18 after tumor cell implantation, administration was initiated with Compound 1 at 10 mg/kg (twice daily) and bevacizumab at 1 mg/kg (twice weekly). On day 30, the dosing frequency of Compound 1 was reduced to once daily. The efficacy of each monotherapy and the combination therapy was evaluated by quantifying orthotopic tumor progression using an IVIS Imaging System and comparing the results.

B16 cells [2] = experiment: In vivo efficacy, combination with ipilimumab, B16 tumors; design: species or system C57BL/6J mice; conditions: Compound 1 3 mg/kg or 10 mg/kg once daily + ipilimumab 5 mg/kg once weekly; B16, subcutaneous
Protocol: (§1) B16 cells (3 x 10^5) were subcutaneously implanted into C57BL/6J mice (n = 6) to establish tumors. On day 12 after implantation, administration was initiated with Compound 1 at 3 mg/kg or 10 mg/kg (once daily) and ipilimumab (an anti-CTLA-4 antibody) at 5 mg/kg (once weekly), and the efficacy of each monotherapy and the combination therapy was compared.
(§2) Tumor volume was calculated using the following formula based on the short and long diameters of the tumor measured with digital calipers (Mitutoyo). [formula]
(§3) The antitumor effect was evaluated by comparing the vehicle-treated control group with the test substance-treated group, and calculating T/C using the following formula. [formula]

MC38 cells = experiment: In vivo efficacy, combination with ipilimumab, MC38 tumors; design: species or system C57BL/6J mice; conditions: Compound 1 3 mg/kg or 30 mg/kg once daily + ipilimumab 5 mg/kg once weekly; MC38, subcutaneous
Protocol: as §1, with “MC38 cells” for “B16 cells”, “or 30” for “or 10”
as §2, §3

[3] = system: recurrent malignant glioma classified as WHO grade III or IV; experiment: Phase 1 clinical trial: preliminary antitumor activity (RANO criteria); format: in vivo, human
Protocol: Each treatment cycle was defined as 28 days, during which safety and treatment response were evaluated. Administration to each subject was continued until unacceptable toxicity occurred, consent was withdrawn, the subject was lost to follow-up, or discontinuation was determined by the investigator and/or the sponsor.

EBP = biological target: T1, EBP (Homo sapiens, UniProt Q15125); experiment: Phase 1 clinical trial: pharmacodynamics, Lathosterol/Zymostenol (L/Z) ratio; format: in vivo; conditions: for decrease of mean L/Z ratio: Cycle 1 Day 2 (C1D2), as of April 2024
T1 construct: endogenous in cells; host or cells: Patients with recurrent malignant glioma (WHO grade III or IV), in vivo; sterol ratio assessed in serum
Description: As of September 2023, pharmacodynamic assessments had clearly shown that Compound 1 inhibited the target, at least in serum. […] (Figure 5)

B16 cells [4] = experiment: Efficacy in anti-PD-1 antibody-resistant in vivo model; design: species or system C57BL/6J mice; conditions: 10 mg/kg, once daily; B16 intradermal; versus nivolumab 5 mg/kg once weekly
Protocol: B16 cells (5 x 10^5 cells; obtained from the JCRB Cell Bank) were intradermally implanted into C57BL/6J mice to establish tumors. On day 12 after implantation, administration of Compound 1 (10 mg/kg, once daily) or an anti-PD-1 antibody (nivolumab, 5 mg/kg, once weekly) was initiated, and the efficacy of each monotherapy group was compared with that of the control group.

T1 sequence (Q15125 whole entry): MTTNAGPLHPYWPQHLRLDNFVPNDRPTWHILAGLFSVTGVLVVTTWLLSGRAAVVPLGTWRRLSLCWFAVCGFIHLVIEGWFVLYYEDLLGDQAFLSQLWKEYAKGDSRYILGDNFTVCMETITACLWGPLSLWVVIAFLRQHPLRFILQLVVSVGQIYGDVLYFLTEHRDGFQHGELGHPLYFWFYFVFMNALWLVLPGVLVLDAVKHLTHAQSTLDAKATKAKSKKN

CC1(C)Oc2cc(Cl)ccc2[C@@H]2OCC3(CCN(CCn4ccnc4)CC3)C[C@H]21 [Compound 1, (4'aR,10'bR)-8'-chloro-1-[2-(1H-imidazol-1-yl)ethyl]-5',5'-dimethyl-4'a,10'b-dihydro-2'H,4'H,5'H-spiro[piperidine-4,3'-pyrano[3,2-c][1]benzopyran] diphosphate]
antitumor effect in combination with bevacizumab [1]: remarkably enhanced antitumor effect | antitumor effect in combination with ipilimumab (B16 cells [2]): remarkably pronounced antitumor effect | antitumor effect in combination with ipilimumab (MC38 cells): remarkably pronounced antitumor effect | stable disease ([3]; 180 mg QD and 240 mg QD): prolonged stable disease (SD) was observed | discontinuation due to objective disease progression (RANO criteria) ([3]; 360 mg QD and 480 mg daily (240 mg BID)): most patients discontinued administration of Compound 1 within two months | patients with preliminary antitumor activity (monotherapy) ([3]; Dose Escalation Part, as of September 2023): 4 patients | tumor reduction (enhancing lesions, RANO criteria; reduction from baseline) ([3]; first patient with IDH-mutant WHO Grade III glioma, 20 mg QD): 22% | time remained on study ([3]; patient with 22% tumor reduction): 15 months | time remained on study ([3]; patient with 100% tumor reduction, as of September 2023): 13 months | time remained on study ([3]; patient with 100% tumor reduction, cutoff April 21, 2024): 20 months | response ([3]; patient with WHO grade III astrocytoma with IDH mutation, 120 mg, after more than one year of treatment): complete response (CR) | tumor reduction (enhancing lesions, RANO criteria; reduction from baseline) ([3]; second patient with IDH-mutant WHO Grade III glioma, 120 mg QD): 100% | reduction in the L/Z ratio versus lower dose levels (EBP; 480 mg per day (240 mg BID)): did not show a greater reduction in the L/Z ratio than those at the 180-360 mg QD dose levels | decrease of mean L/Z ratio (EBP; 20 mg QD): 70% | decrease of mean L/Z ratio (EBP; 180 mg and 240 mg QD): 95-97% | decrease of mean L/Z ratio (EBP; 360 mg QD): 97.5% | decrease of mean L/Z ratio (EBP; 40-120 mg QD): 85-91% | decrease of L/Z ratio (EBP; Cycle 1 Day 8 (C1D8), 20-360 mg QD, maintained in subsequent cycles): approximately 100% | blood L/Z ratio across dose groups (EBP; from the 180 mg QD to 360 mg QD dose groups): remained at a similar level | decrease of the ratio of lathosterol and zymostenol (L/Z ratio) (EBP; serum, starting from 40 mg QD cohort, as of September 2023): over 80% | tumor growth inhibition as monotherapy (B16 cells [4]): statistically significant inhibition of tumor growth compared with the nivolumab-treated group
